ChEMBL document CHEMBL5131391, “One-pot three-component synthesis of novel pyrazolo[3,4-b]pyridines as potent antileukemic agents” (Eur J Med Chem, 2022)
The source made the active and inactive calls. The rule behind the calls is not given here.

Experiments:
[1] = test system: MOLT-4; test: Antiproliferative activity against human MOLT-4 cells assessed as growth inhibition measured after 48 hrs by NCI protocol based SRB assay; type: functional
[2] = test system: SR; test: Antiproliferative activity against human SR cells assessed as growth inhibition measured after 48 hrs by NCI protocol based SRB assay; type: functional
[3] = test system: EKVX; test: Antiproliferative activity against human EKVX cells assessed as growth inhibition measured after 48 hrs by NCI protocol based SRB assay; type: functional
[4] = test system: NCI-H522; test: Antiproliferative activity against human NCI-H522 cells assessed as growth inhibition measured after 48 hrs by NCI protocol based SRB assay; type: functional
[5] = test system: NCI-H322M; test: Antiproliferative activity against human NCI-H322M cells assessed as growth inhibition measured after 48 hrs by NCI protocol based SRB assay; type: functional
[6] = test system: COLO 205; test: Antiproliferative activity against human COLO 205 cells assessed as growth inhibition measured after 48 hrs by NCI protocol based SRB assay; type: functional
[7] = test system: SF-295; test: Antiproliferative activity against human SF-295 cells assessed as growth inhibition measured after 48 hrs by NCI protocol based SRB assay; type: functional
[8] = test system: LOX IMVI; test: Antiproliferative activity against human LOX IMVI cells assessed as growth inhibition measured after 48 hrs by NCI protocol based SRB assay; type: functional
[9] = test system: SK-MEL-28; test: Antiproliferative activity against human SK-MEL-28 cells assessed as growth inhibition measured after 48 hrs by NCI protocol based SRB assay; type: functional
[10] = test system: UACC-257; test: Antiproliferative activity against human UACC-257 cells assessed as growth inhibition measured after 48 hrs by NCI protocol based SRB assay; type: functional
[11] = test system: OVCAR-4; test: Antiproliferative activity against human OVCAR-4 cells assessed as growth inhibition measured after 48 hrs by NCI protocol based SRB assay; type: functional
[12] = test system: OVCAR-5; test: Antiproliferative activity against human OVCAR-5 cells assessed as growth inhibition measured after 48 hrs by NCI protocol based SRB assay; type: functional
[13] = test system: NCI/ADR-RES; test: Antiproliferative activity against human NCl/ADR-RES cells assessed as growth inhibition measured after 48 hrs by NCI protocol based SRB assay; type: functional
[14] = test system: SK-OV-3; test: Antiproliferative activity against human SK-OV-3 cells assessed as growth inhibition measured after 48 hrs by NCI protocol based SRB assay; type: functional
[15] = test system: 786-0; test: Antiproliferative activity against human 786-0 cells assessed as growth inhibition measured after 48 hrs by NCI protocol based SRB assay; type: functional
[16] = test system: SN12C; test: Antiproliferative activity against human SN12C cells assessed as growth inhibition measured after 48 hrs by NCI protocol based SRB assay; type: functional
[17] = test system: CAKI-1; test: Antiproliferative activity against human CAKI-1 cells assessed as growth inhibition measured after 48 hrs by NCI protocol based SRB assay; type: functional
[18] = test system: DU-145; test: Antiproliferative activity against human DU-145 cells assessed as growth inhibition measured after 48 hrs by NCI protocol based SRB assay; type: functional
[19] = test system: Hs-578T; test: Antiproliferative activity against human Hs-578T cells assessed as growth inhibition measured after 48 hrs by NCI protocol based SRB assay; type: functional
[20] = test system: MOLT-4; test: Cytostatic activity in human MOLT-4 cells assessed as tumor growth inhibition measured after 48 hrs by NCI protocol based SRB assay; type: functional
[21] = test system: K562; test: Cytostatic activity in human K562 cells assessed as tumor growth inhibition measured after 48 hrs by NCI protocol based SRB assay; type: functional
[22] = test system: HOP-92; test: Cytostatic activity in human HOP-92 cells assessed as tumor growth inhibition measured after 48 hrs by NCI protocol based SRB assay; type: functional
[23] = test system: A549; test: Cytostatic activity in human A549 cells assessed as tumor growth inhibition measured after 48 hrs by NCI protocol based SRB assay; type: functional
[24] = test system: NCI-H226; test: Cytostatic activity in human NCI-H226 cells assessed as tumor growth inhibition measured after 48 hrs by NCI protocol based SRB assay; type: functional
[25] = test system: HCT-116; test: Cytostatic activity in human HCT-116 cells assessed as tumor growth inhibition measured after 48 hrs by NCI protocol based SRB assay; type: functional
[26] = test system: COLO 205; test: Cytostatic activity in human COLO 205 cells assessed as tumor growth inhibition measured after 48 hrs by NCI protocol based SRB assay; type: functional
[27] = test system: KM12; test: Cytostatic activity in human KM12 cells assessed as tumor growth inhibition measured after 48 hrs by NCI protocol based SRB assay; type: functional
[28] = test system: SF-295; test: Cytostatic activity in human SF-295 cells assessed as tumor growth inhibition measured after 48 hrs by NCI protocol based SRB assay; type: functional
[29] = test system: SNB-75; test: Cytostatic activity in human SNB-75 cells assessed as tumor growth inhibition measured after 48 hrs by NCI protocol based SRB assay; type: functional
[30] = test system: U-251; test: Cytostatic activity in human U-251 cells assessed as tumor growth inhibition measured after 48 hrs by NCI protocol based SRB assay; type: functional
[31] = test system: M14; test: Cytostatic activity in human M14 cells assessed as tumor growth inhibition measured after 48 hrs by NCI protocol based SRB assay; type: functional
[32] = test system: SK-MEL-5; test: Cytostatic activity in human SK-MEL-5 cells assessed as tumor growth inhibition measured after 48 hrs by NCI protocol based SRB assay; type: functional
[33] = test system: SK-MEL-28; test: Cytostatic activity in human SK-MEL-28 cells assessed as tumor growth inhibition measured after 48 hrs by NCI protocol based SRB assay; type: functional
[34] = test system: UACC-257; test: Cytostatic activity in human UACC-257 cells assessed as tumor growth inhibition measured after 48 hrs by NCI protocol based SRB assay; type: functional
[35] = test system: OVCAR-3; test: Cytostatic activity in human OVCAR-3 cells assessed as tumor growth inhibition measured after 48 hrs by NCI protocol based SRB assay; type: functional
[36] = test system: OVCAR-8; test: Cytostatic activity in human OVCAR-8 cells assessed as tumor growth inhibition measured after 48 hrs by NCI protocol based SRB assay; type: functional
[37] = test system: A498; test: Cytostatic activity in human A498 cells assessed as tumor growth inhibition measured after 48 hrs by NCI protocol based SRB assay; type: functional
[38] = test system: RXF 393; test: Cytostatic activity in human RXF 393 cells assessed as tumor growth inhibition measured after 48 hrs by NCI protocol based SRB assay; type: functional
[39] = test system: BT-549; test: Cytostatic activity in human BT-549 cells assessed as tumor growth inhibition measured after 48 hrs by NCI protocol based SRB assay; type: functional
[40] = test system: RS4-11; test: Downregulation of MEIS1 protein expression in human RS4-11 cells at 5 to 20 uM measured after 24 hrs by Western blot analysis; type: functional, cell-based; conditions: dose 5-20 µM
[41] = read-out: LC50 (the source's name)

N#Cc1c(-c2ccccc2)nc2c(c(-c3ccccc3)nn2-c2ccccc2)c1-c1ccc(O)cc1
GI50 [1]: 2.49 µM
CC50 [1, 41]: > 100 µM
GI50 [2]: 2.95 µM
CC50 [2, 41]: > 100 µM
GI50 [3]: 1.92 µM
CC50 [3, 41]: 21.9 µM
GI50 [4]: 2.32 µM
CC50 [4, 41]: > 100 µM
GI50 [5]: 1.57 µM
CC50 [5, 41]: 5.56 µM
GI50 [6]: 2.61 µM
CC50 [6, 41]: 58.2 µM
GI50 [7]: 1.88 µM
CC50 [7, 41]: 9.8 µM
GI50 [8]: 1.68 µM
CC50 [8, 41]: 5.55 µM
GI50 [9]: 1.58 µM
CC50 [9, 41]: 5.86 µM
GI50 [10]: 3.13 µM
CC50 [10, 41]: 6.55 µM
GI50 [11]: 1.95 µM
CC50 [11, 41]: 12.8 µM
GI50 [12]: 1.75 µM
CC50 [12, 41]: 6.66 µM
GI50 [13]: 2.27 µM
CC50 [13, 41]: 2.95 µM
GI50 [14]: 2.87 µM
CC50 [14, 41]: 2.98 µM
GI50 [15]: 2.16 µM
CC50 [15, 41]: 31.8 µM
GI50 [16]: 1.64 µM
CC50 [16, 41]: 5.63 µM
GI50 [17]: 2.48 µM
CC50 [17, 41]: 23.8 µM
GI50 [18]: 2.62 µM
CC50 [18, 41]: 37.7 µM
GI50 [19]: 1.41 µM
CC50 [19, 41]: 43.8 µM
TGI [20]: 7.86 µM
TGI [21]: > 100 µM
TGI [22]: 4.2 µM
TGI [23]: 6.87 µM
TGI [24]: 4.51 µM
TGI [25]: 7.32 µM
TGI [26]: 6.31 µM
TGI [27]: 4.76 µM
TGI [28]: 4.29 µM
TGI [29]: 7.28 µM
TGI [30]: 3.97 µM
TGI [31]: 5.48 µM
TGI [32]: 3.19 µM
TGI [33]: 3.05 µM
TGI [34]: 12.1 µM
TGI [35]: 4.45 µM
TGI [36]: 11.7 µM
TGI [37]: 3.07 µM
TGI [38]: 2.35 µM
TGI [39]: 4.45 µM

Cc1ccc(-c2nc3c(c(-c4ccccc4)nn3-c3ccccc3)c(-c3ccc(O)cc3)c2C#N)cc1
Activity [40]: Active
